Positions of bridges follow the written chain, without caps; N, C: chain ends. Non-standard residues stand in square brackets, D forms with d. Residues, ends and D or L forms follow the SMILES beside them. *: point of attachment. NMeY = CN[C@@H](Cc1ccc(O)cc1)C(=O)O; Propionyl = CCC(=O)*
Assays:
HeLa = test: Cytotoxicity against human HeLa cells assessed as reduction in cell viability incubated for 72 hrs by CCK8 assay; type: cell-based
[1] = Non-competitive inhibition of porcine pancrease lipase type 2 assessed as decrease in 4-MU formation using 4-MUO as substrate preincubated for 3 mins followed by substrate addition and measured for 40 mins by Lineweaver-Burk plot analysis; set-up: species or system Sus scrofa domesticus, Pancreas
HepG2 = test: Cytotoxicity against human HepG2 cells assessed as reduction in cell viability incubated for 72 hrs by CCK8 assay; type: cell-based; settings: HepG2, 72 h
MCF7 = test: Cytotoxicity against human MCF7 cells assessed as reduction in cell viability incubated for 72 hrs by CCK8 assay; type: cell-based; settings: MCF7, 72 h
PC-9 = test: Cytotoxicity against human PC-9 cells assessed as reduction in cell viability incubated for 72 hrs by CCK8 assay; type: cell-based; settings: PC-9, 72 h
[2] = Inhibition of porcine pancrease lipase type 2 assessed as decrease in 4-MU formation using 4-MUO as substrate preincubated for 3 mins followed by substrate addition and measured for 40 mins by fluorescence assay; set-up: species or system Sus scrofa domesticus, Pancreas

**Q.** Which IC50 (HeLa) does the source give for `CC(=O)N[C@@H]1C(=O)N[C@@H](C(C)C)C(=O)N2CCC[C@H]2C(=O)N[C@H](C(C)C)C(=O)N[C@@H](Cc2ccc(O)cc2)C(=O)N[C@@H](Cc2ccc(O)cc2)C(=O)O[C@@H]1C` here?
**A.** > 20 µM

**Q.** What about the Ki [1] of the same molecule?
**A.** 2 µM

**Q.** What about the IC50 (HepG2) of the same molecule?
**A.** > 20 µM

**Q.** What about the IC50 (MCF7) of the same molecule?
**A.** > 20 µM

**Q.** What about the IC50 (PC-9) of the same molecule?
**A.** > 20 µM

**Q.** What about the IC50 [2] of the same molecule?
**A.** 0.5 µM

**Q.** For `CC(=O)N[C@@H]1C(=O)N[C@@H](C(C)C)C(=O)N2CCC[C@H]2C(=O)N[C@@H](C(C)C)C(=O)N(C)[C@@H](Cc2ccc(O)cc2)C(=O)N[C@@H](Cc2ccc(O)cc2)C(=O)O[C@@H]1C` (Ac-TVPV[NMeY]Y; ester 1-C), which IC50 (HeLa) is on record?
**A.** > 20 µM

**Q.** What about the IC50 (HepG2) of the same molecule?
**A.** > 20 µM

**Q.** What about the IC50 (MCF7) of the same molecule?
**A.** > 20 µM

**Q.** What about the IC50 (PC-9) of the same molecule?
**A.** > 20 µM

**Q.** What about the IC50 [2] of the same molecule?
**A.** 7.6 µM

**Q.** Which IC50 (HeLa) does the source give for `CCC(=O)N[C@@H]1C(=O)N[C@@H](C(C)C)C(=O)N2CCC[C@H]2C(=O)N[C@@H](C(C)C)C(=O)N(C)[C@@H](Cc2ccc(O)cc2)C(=O)N[C@@H](Cc2ccc(O)cc2)C(=O)O[C@@H]1C` (Propionyl-TVPV[NMeY]Y; ester 1-C) here?
**A.** > 20 µM

**Q.** What about the IC50 (HepG2) of the same molecule?
**A.** > 20 µM

**Q.** And the IC50 (MCF7)?
**A.** > 20 µM

**Q.** And the IC50 (PC-9)?
**A.** > 20 µM

**Q.** What about the IC50 [2] of the same molecule?
**A.** 1.8 µM

Source: ChEMBL document CHEMBL4673229, “Pancreatic Lipase Inhibitory Cyclohexapeptides from the Marine Sponge-Derived Fungus Aspergillus sp. 151304” (J Nat Prod, 2020)
